# Results as given in patent US9957271B2, “Substituted bicyclic aza-heterocycles and analogues as sirtuin modulators” (GlaxoSmithKline, LLC, priority 2012, dated 2018).
# Columns and labels:
# SIRT1 [1] = biological target: T1, SIRT1 (Homo sapiens, UniProt Q96EB6); assay: TAMRA based mass spectrometry assay of SIRT1 activity; format: biochemical; settings: TAMRA peptide substrate; for TAMRA EC1.5 (μM): concentration of test compound giving 150% activation of SIRT1; for Emax: percent maximum fold activation of SIRT1, read-out: TAMRA % Fold Act
# T1 sequence (Q96EB6 1-747): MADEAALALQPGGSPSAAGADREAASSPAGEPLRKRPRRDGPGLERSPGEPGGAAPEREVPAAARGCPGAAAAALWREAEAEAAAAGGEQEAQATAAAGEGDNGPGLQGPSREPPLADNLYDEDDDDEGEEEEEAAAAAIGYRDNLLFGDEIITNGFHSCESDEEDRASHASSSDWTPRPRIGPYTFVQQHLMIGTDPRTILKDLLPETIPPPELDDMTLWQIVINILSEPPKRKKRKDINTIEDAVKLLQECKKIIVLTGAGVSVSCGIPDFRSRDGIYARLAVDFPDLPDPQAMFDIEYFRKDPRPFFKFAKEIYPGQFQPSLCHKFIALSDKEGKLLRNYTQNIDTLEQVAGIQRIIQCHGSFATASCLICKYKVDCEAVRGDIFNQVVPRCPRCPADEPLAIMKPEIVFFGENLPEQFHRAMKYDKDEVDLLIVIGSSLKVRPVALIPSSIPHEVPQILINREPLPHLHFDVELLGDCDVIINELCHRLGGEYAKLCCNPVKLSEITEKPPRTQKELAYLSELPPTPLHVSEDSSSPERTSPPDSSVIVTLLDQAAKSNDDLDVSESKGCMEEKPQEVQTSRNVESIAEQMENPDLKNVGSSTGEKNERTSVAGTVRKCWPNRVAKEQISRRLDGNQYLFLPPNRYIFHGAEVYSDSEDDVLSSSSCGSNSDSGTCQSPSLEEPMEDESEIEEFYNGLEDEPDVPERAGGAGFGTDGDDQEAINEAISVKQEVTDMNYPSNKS
# In short: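 Deacetylation of a biotinylated, TAMRA-tagged p53-based peptide (0.5 μM) by 10 nM His-tagged SIRT1 with 120 μM βNAD+, 25 °C for 25 min, pH 8 Tris-acetate buffer, across a compound concentration range. Quenched by formic acid and read by mass spec as product peptide or OAADPR; activity relative to DMSO reactions, nicotinamide defining maximal inhibition.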
# SIRT1 [2] = biological target: T1, SIRT1; assay: Trp mass spectrometry assay of SIRT1 activity; format: biochemical; settings: Trp peptide substrate; for Trp EC1.5 (μM): concentration of test compound giving 150% activation of SIRT1; for Emax: percent maximum fold activation of SIRT1, read-out: Trp % Fold Act
# In short: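 Activation readout: EC1.5 (concentration raising activity 50% over control) and percent maximum activation, from mass-spec quantitation of OAADPR or deacetylated Trp peptide. Reaction: 0.5 μM acetylated Trp peptide, 120 μM βNAD+, 10 nM bacterially expressed N-His SIRT1, pH 7.5 HEPES buffer with […], 25 min at 25° C.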
Compound,TAMRA EC1.5 (μM) (SIRT1 [1]),Emax (SIRT1 [1]) [%],Trp EC1.5 (μM) (SIRT1 [2]),Emax (SIRT1 [2]) [%]
O=C(Nc1cccnc1)c1cnc2ccc(-c3cccc(C(F)(F)F)c3)nn12 [Compound 2],B (EC1.5 1-25 μM),< 350,A (EC1.5<1 μM),≥ 350
O=C(Nc1cccc(CN2CCOCC2)n1)c1cnc2ccc(-c3cccc(C(F)(F)F)c3)nn12 [Compound 5],A (EC1.5<1 μM),≥ 350,B (EC1.5 1-25 μM),< 350
O=C(Nc1ccccn1)c1cnc2ccc(-c3cccc(OC(F)(F)F)c3)nn12 [Compound 8],B (EC1.5 1-25 μM),< 350,B (EC1.5 1-25 μM),< 350
CS(=O)(=O)c1cccc(-c2ccc3ncc(C(=O)Nc4nccs4)n3n2)c1 [Compound 11],C (EC1.5>25 μM),< 350,A (EC1.5<1 μM),≥ 350
O=C(Nc1ccccn1)c1cnc2ccc(-c3ccccc3OC(F)(F)F)nn12 [Compound 14],A (EC1.5<1 μM),≥ 350,B (EC1.5 1-25 μM),≥ 350
Cc1cnc(NC(=O)c2cnc3ccc(-c4cccc(C(F)(F)F)c4)nn23)s1 [Compound 17],B (EC1.5 1-25 μM),< 350,B (EC1.5 1-25 μM),< 350
O=C(Nc1nc(CN2CCOCC2)cs1)c1cnc2ccc(-c3ccccc3C(F)(F)F)nn12 [Compound 20],A (EC1.5<1 μM),≥ 350,B (EC1.5 1-25 μM),< 350
O=C(Nc1ccnc(CN2CCOCC2)n1)c1cnc2ccc(-c3ccccc3C(F)(F)F)nn12 [Compound 23],B (EC1.5 1-25 μM),≥ 350,B (EC1.5 1-25 μM),< 350
O=C(Nc1ccnc(N2CCCC2)c1)c1cnc2ccc(-c3ccccc3C(F)(F)F)nn12 [Compound 25],A (EC1.5<1 μM),≥ 350,A (EC1.5<1 μM),≥ 350
O=C(Nc1cccc(CN2CCOCC2)n1)c1cnc2ccc(-c3cccc(Cl)c3)nn12 [Compound 26],A (EC1.5<1 μM),≥ 350,C (EC1.5>25 μM),< 350
O=C(Nc1nc(CN2CCOCC2)cs1)c1cnc2ccc(-c3cccc(F)c3)nn12 [Compound 29],B (EC1.5 1-25 μM),< 350,B (EC1.5 1-25 μM),< 350
O=C(Nc1ccccn1)c1cnc2ccc(-c3ccccc3C(F)F)nn12 [Compound 32],B (EC1.5 1-25 μM),< 350,B (EC1.5 1-25 μM),< 350
O=C(Nc1cccc(CN2CCOCC2)n1)c1cnc2ccc(-c3ccccc3C(F)F)nn12 [Compound 34],A (EC1.5<1 μM),≥ 350,B (EC1.5 1-25 μM),< 350
O=C(Nc1nc(CN2CCOCC2)cs1)c1cnc2ccc(-c3ccccc3C(F)F)nn12 [Compound 35],B (EC1.5 1-25 μM),< 350,C (EC1.5>25 μM),< 350
O=C(Nc1ccnc(CN2CCOCC2)n1)c1cnc2ccc(-c3ccccc3C(F)F)nn12 [Compound 38],B (EC1.5 1-25 μM),< 350,C (EC1.5>25 μM),< 350
O=C(Nc1cccc(CN2CCOCC2)n1)c1cnc2ccc(-c3ccc(F)cc3F)nn12 [Compound 41],B (EC1.5 1-25 μM),< 350,C (EC1.5>25 μM),< 350
O=C(Nc1cccnc1)c1cnn2ccc(N3CCC(C(F)(F)F)CC3)nc12 [Compound 1066],–,–,–,≥ 350
O=C(Nc1cncc(F)c1)c1cnn2ccc(N3CCC(C(F)(F)F)CC3)nc12 [Compound 1067],–,–,–,≥ 350
Cc1nn2ccc(N3CCC[C@@H]3C(F)(F)F)nc2c1C(=O)Nc1ccncn1 [Compound 1068],–,–,–,≥ 350
Cc1nn2ccc(N3CCC[C@@H]3C(F)(F)F)nc2c1C(=O)Nc1cncc(F)c1 [Compound 1069],–,–,–,≥ 350
Cc1nn2ccc(N3CCC[C@@H]3C(F)(F)F)nc2c1C(=O)Nc1ccccn1 [Compound 1070],–,–,–,≥ 350
Cc1nn2ccc(N3CCC[C@@H]3C(F)(F)F)nc2c1C(=O)Nc1cccnc1 [Compound 1071],–,–,–,≥ 350
Cc1cncc(NC(=O)c2c(C)nn3ccc(N4CCC[C@@H]4C(F)(F)F)nc23)c1 [Compound 1072],–,–,–,≥ 350
Cc1cncc(NC(=O)c2cnn3ccc(N4CCC(C(F)(F)F)CC4)nc23)c1 [Compound 1073],–,–,–,≥ 350
O=C(Nc1cc(-c2cnco2)ccn1)c1cnn2ccc(N3CCC(C(F)(F)F)CC3)nc12 [Compound 1074],–,–,–,≥ 350

Compound,TAMRA EC1.5 (μM) (SIRT1 [1]),Emax (SIRT1 [1]) [%],Trp EC1.5 (μM) (SIRT1 [2]),Emax (SIRT1 [2]) [%]
Cc1nn2ccc(N3CCC[C@@H]3C(F)(F)F)nc2c1C(=O)Nc1cccnn1 [Compound 1075],–,–,–,≥ 350
O=C(Nc1cccnc1)c1cnn2ccc(N3CCC[C@@H]3C(F)(F)F)nc12 [Compound 1076],–,–,–,≥ 350
Cc1cncc(NC(=O)c2cnn3ccc(N4CCC[C@@H]4C(F)(F)F)nc23)c1 [Compound 1077],–,–,–,≥ 350
O=C(Nc1cnccn1)c1cnn2ccc(N3CCC[C@@H]3C(F)(F)F)nc12 [Compound 1078],–,–,–,≥ 350
O=C(Nc1cccnn1)c1cnn2ccc(N3CCC[C@@H]3C(F)(F)F)nc12 [Compound 1079],–,–,–,≥ 350
COc1nccc(NC(=O)c2cnn3ccc(N4CCC[C@@H]4C(F)(F)F)nc23)n1 [Compound 1080],–,–,–,≥ 350
O=C(Nc1cccc(-c2cnco2)n1)c1cnn2ccc(N3CCC[C@@H]3C(F)(F)F)nc12 [Compound 1081],–,–,–,≥ 350
Cc1nc(NC(=O)c2c(C)nn3ccc(N4CCC[C@@H]4C(F)(F)F)nc23)sc1C [Compound 1082],–,–,–,≥ 350
O=C(Nc1cccc(-c2cnco2)n1)c1cnn2ccc(N3CCC(C(F)(F)F)CC3)nc12 [Compound 1083],–,–,–,≥ 350
Cc1nn2ccc(N3CCC[C@@H]3C(F)(F)F)nc2c1C(=O)Nc1cnccn1 [Compound 1084],–,–,–,≥ 350
COc1nccc(NC(=O)c2c(C)nn3ccc(N4CCC[C@@H]4C(F)(F)F)nc23)n1 [Compound 1085],–,–,–,≥ 350
Cc1nn2ccc(N3CCC[C@@H]3C(F)(F)F)nc2c1C(=O)Nc1cccc(-c2cnco2)n1 [Compound 1086],–,–,–,≥ 350
Cc1nn2ccc(N3CCC[C@@H]3C(F)(F)F)nc2c1C(=O)Nc1cc(-c2cnco2)ccn1 [Compound 1087],–,–,–,≥ 350
Cc1nc(NC(=O)c2cnn3ccc(N4CCC[C@@H]4C(F)(F)F)nc23)sc1C [Compound 1088],–,–,–,≥ 350
O=C(Nc1cncc(F)c1)c1cnn2ccc(N3CCC[C@@H]3C(F)(F)F)nc12 [Compound 1089],–,–,–,< 350
O=C(Nc1ccccn1)c1cnn2ccc(N3CCC[C@@H]3C(F)(F)F)nc12 [Compound 1090],–,–,–,< 350
O=C(Nc1cc(-c2cnco2)ccn1)c1cnn2ccc(N3CCC[C@@H]3C(F)(F)F)nc12 [Compound 1091],–,–,–,≥ 350
Cn1cc2ccc(NC(=O)c3cnc4ccc(N5CCCC5C(F)(F)F)nn34)cc2n1 (centres unmarked) [Compound 1092],–,–,–,≥ 350
O=C(Nc1ccncn1)c1cnn2ccc(N3CCC[C@@H]3C(F)(F)F)nc12 [Compound 1093],–,–,–,< 350
CN1CCc2ncc(NC(=O)c3cnc4ccc(N5CCCC5C(F)(F)F)nn34)cc2C1 (centres unmarked) [Compound 1094],–,–,–,≥ 350
O=C(Nc1cnc2c(c1)COCC2)c1cnc2ccc(N3CCCC3C(F)(F)F)nn12 (centres unmarked) [Compound 1095],–,–,–,≥ 350
O=C(Nc1nc2c(s1)CCCC2)c1cnc2ccc(N3CCCC3C(F)(F)F)nn12 (centres unmarked) [Compound 1096],–,–,–,≥ 350
O=C(Nc1cccc2c1COB2O)c1cnc2ccc(N3CCCC3C(F)(F)F)nn12 (centres unmarked) [Compound 1097],–,–,–,≥ 350
O=C(Nc1cc(-c2cnco2)ccn1)c1cnc2ccc(N3CCCC3C(F)(F)F)nn12 (centres unmarked) [Compound 1098],–,–,–,≥ 350
O=C(Nc1cccc(-c2cnco2)n1)c1cnc2ccc(N3CCCC3C(F)(F)F)nn12 (centres unmarked) [Compound 1099],–,–,–,≥ 350
